Measured values as given in US8492515B2 (priority 2008, dated 2013).
In brackets after ≈: the same amount, converted by molar mass. Square brackets hold non-standard residues; d marks the D form. Peptide text beside a SMILES is read from it. Ac6c = NC1(C(=O)O)CCCCC1

Experiments:
[1] = system: E. coli D31; conditions: full strength Muller-Hinton broth, 16 hours, 37° C.
From the text: (§1) To investigate the activity of the A3-APO metabolites, Chex1-Arg20 single chain unit and an Arg7-Arg20 common cleavage fragment were synthesized and studied for their ability to kill Enterobacteriaceae strains in undiluted Muller-Hinton broth, a true measure of potential clinical viability (Otvos et al., 2005. J. Med. Chem. 48: 5349-5359). The peptides of the invention were made on a CEM Liberty automated synthesizer with standard Fmoc-chemistry. The peptides were detached from the resin with the carboxyl terminus of the C-terminal Arg residue being in the form of an amino amide, —C(O)—NH2 (“Chex1-Arg20-NH2” and “Arg7-Arg20-NH2”), while still in the microwave chamber, and were purified by RP-HPLC. […] The biological studies carried out on chemically synthesized peptides in this example and succeeding examples were carried out on the C-terminal modified versions of the peptides wherein the C-terminal carboxylic acid function was in the form of an amide, —C(O)—NH2. Antibacterial growth inhibition assays were performed using sterile 96-well polypropylene plates (Nunc F96 microtiter plates) in a final volume of 100 μL as described previously (Cudic et al., 2002. Peptides 23: 271-283). The cell concentrations were estimated by measuring the ultraviolet absorbance at 600 nm and applying the formula cfu/mL=A600(3.8×10^8), where cfu is the number of colony-forming units. Briefly, 50 μL of a suspension of midlogarithmic phase bacterial cultures diluted to 5×10^5 cfu/mL in Muller-Hinton broth (MHB) was added to 50 μL of serially diluted peptides also dissolved in MHB. The final peptide concentration was 128 μg/mL. Cultures were then incubated at 37° C., 5% CO2 for 16-20 h without shaking, and growth inhibition was measured by recording the absorbance at 600 nm using a microplate reader. […] The minimal inhibitory concentration indicates the lowest peptide dose where no visible bacterial growth is detected after 16 hours incubation in full strength Muller-Hinton broth at 37° C. The peptide Chex-pyrr-Dap dimer was also included in the study. […] (Cudic et al., 2002. Peptides 23: 271-283).

[2] = system: E. coli HK179; conditions: HK179, 16 h
From the text: as §1

[3] = system: E. coli SEQ102; conditions: SEQ102, 16 h
From the text: as §1

[4] = system: Enterobacteriaceae strains
From the text: as §1

[5] = system: K. pneumoniae HK123; conditions: HK123, 16 h
From the text: as §1

[6] = system: Klebsiella pneumoniae isolates
From the text: as §1

[7] = system: S. typhimurium G10215; conditions: G10215, 16 h
From the text: as §1

[8] = system: extended-spectrum β-lactamase producing E. coli strain (designation 5770); assay: Systemic infection model, cisplatin-pretreated CD-1 mice, blood bacterial counts; type: in vivo
Experimental: (§2) As peptide drugs, such as antimicrobial peptides, are predominantly cleared through the kidneys (Klootwijk et al., 1997. J. Clin. Endocrinol. Metab. 82: 3068-3073) and the kidney functions of mice are 20-fold faster than those of humans, CD-1 female mice of 15-20 g were pretreated with 18 mg/kg cisplatin for 3 days to impair kidney clearance similar to the levels observed in humans (Mathe et al., 2006. Lab. Anim. 40: 296-300) before they were challenged intraperitoneally (ip) with 10^8 CFU per g mouse of an extended-spectrum β-lactamase producing E. coli strain (designation 5770). Four, 8 and 12 hours after challenge 10 or 20 mg/kg peptide Chex1-Arg20 or 40 mg/kg imipenem (as a positive control) were administered ip to 10 mice in each group. Imipenem is a broad spectrum β-lactam antibiotic. Prior to drug administration at all three timepoints, blood was taken from the tail vein of 3-5 mice for determining blood bacterial counts. […] Antimicrobials were administered ip 4 hours after challenge 3 times in 4 hour intervals. Blood was taken immediately before antimicrobial treatments. Numbers in parentheses indicate the number of mice with <10^3 CFU/mL. Bacterial counts were determined 10 times from different dilution of blood from 5 mice in each group in each timepoints.

[9] = Gross necropsy of surviving mice three days post-infection; type: in vivo, CD-1 mice; conditions: 10 or 20 mg/kg ip
Experimental: as §2
The skin was smooth, and healthy liver, lungs, spleen and kidneys were registered.

[10] = system: Escherichia coli 5770; assay: Mouse survival after last dose, systemic infection model without cisplatin pretreatment; type: in vivo
Experimental: The survival rate and the dynamics of survival of mice after the last dose of an antibacterial peptide treatment (12 hours post-infection) were measured in a mouse model of Escherichia coli 5770 systemic infection. In this particular study, the animals were not pretreated with cisplatin. Ten animals were used in each group. […] In the control (infected, non-treated) and the imipenem treated rows, the first numbers reflect the number of surviving animals on the day of assay measuring the efficacy of the Chex1-Arg20 and the second numbers are the surviving control animals on the day of the A3-APO efficacy assay.

[11] = system: Salmonella typhimurium isolates; conditions: murium isolates

## CC(C)C[C@H](NC(=O)[C@H](Cc1ccc(O)cc1)NC(=O)[C@@H]1CCCN1C(=O)[C@H](CCCNC(=N)N)NC(=O)[C@@H]1CCCN1C(=O)[C@H](CCCCN)NC(=O)[C@H](CC(=O)O)NC(=O)[C@@H]1CCCN1C(=O)[C@H](CCCNC(=N)N)NC(=O)C1(N)CCCCC1)C(=O)N1CCC[C@H]1C(=O)N[C@@H](CCCNC(=N)N)C(=O)N1CCC[C@H]1C(=O)N[C@@H](CCCNC(=N)N)C(=O)N1CCC[C@H]1C(=O)N1CCC[C@H]1C(=O)N[C@@H](CCCNC(=N)N)C(=O)N1CCC[C@H]1C(=O)N[C@H](C(=O)N[C@@H](CCCNC(=N)N)C(=O)O)C(C)C [Chex1-Arg20, Chex-Arg-Pro-Asp-Lys-Pro-Arg-Pro-Tyr-Leu-Pro-Arg-Pro-Arg--Pro-Pro-Arg-Pro-Val-Arg] (H-[Ac6c]RPDKPRPYLPRPRPPRPVR-OH; N-terminus and C-terminus assumed)
[1]
  MIC against E. coli D31: 8 µg/mL (≈ 3.23 µM)
[2]
  MIC against E. coli HK179: 2 µg/mL (≈ 0.808 µM)
[3]
  MIC against E. coli SEQ102: 32 µg/mL (≈ 12.9 µM)
[4]
  IC50: 100 to 500 nM
[4]; on average
  activity relative to A3-APO in milligram/L terms: twice as active
  activity relative to A3-APO in molar terms: 5 times
[4]; overall, Table 3
  potency in killing resistant bacteria relative to A3-APO: twice as potent
[5]
  MIC against K. pneumoniae HK123: 8 µg/mL (≈ 3.23 µM)
[6]
  minimal bactericidal concentrations (MBC): 8 µg/mL (≈ 3.23 µM)
[7]
  MIC against S. typhimurium G10215: 4 µg/mL (≈ 1.62 µM)
[8]; 10 mg/kg
  bacterial count reduction: approximately 3 log 10 units
[8]; 10 mg/kg ip, 4 h (blood taken before first dose)
  Bacterial counts in blood after inoculation/challenge: 3.2 × 10^5 CFU/mL
[8]; 10 mg/kg ip, 8 h
  Bacterial counts in blood after inoculation/challenge: 8.2 × 10^3 CFU/mL
  number of mice with <10^3 CFU/mL: 1/5
[8]; 10 mg/kg ip, 12 h
  Bacterial counts in blood after inoculation/challenge: < 1.3 × 10^4 CFU/mL
  number of mice with <10^3 CFU/mL: 1/5
[8]; 20 mg/kg
  effect on mouse blood after a lethal E. coli infection: sterilized mouse blood
[8]; 20 mg/kg ip, 4 h (blood taken before first dose)
  Bacterial counts in blood after inoculation/challenge: 3.2 × 10^5 CFU/mL
[8]; 20 mg/kg ip, 8 h
  Bacterial counts in blood after inoculation/challenge: 5.5 × 10^4 CFU/mL
  number of mice with <10^3 CFU/mL: 3/5
[8]; 20 mg/kg ip, 12 h
  Bacterial counts in blood after inoculation/challenge: < 3.7 × 10^3 CFU/mL
  number of mice with <10^3 CFU/mL: 3/5
[8]; after two doses of 20 mg/kg
  bacterial count reduction: 3.5 log 10 units
  mice having blood bacterial levels below detection limits: 60%
[9]
  internal bleeding (hemolysis): no signs of internal bleeding
  signs of toxicity at gross necropsy: no signs of toxicity
[10]; 2.5 mg/kg, 0 h after last dose
  number of surviving mice (10 animals each): 10
[10]; 2.5 mg/kg, 3 h after last dose
  number of surviving mice (10 animals each): 7/7
[10]; 2.5 mg/kg, 6 h after last dose
  number of surviving mice (10 animals each): 7
[10]; 2.5 mg/kg, 9 h after last dose
  number of surviving mice (10 animals each): 5
[10]; 2.5 mg/kg, 12 h after last dose
  number of surviving mice (10 animals each): 4
[10]; 5 mg/kg, 0 h after last dose
  number of surviving mice (10 animals each): 9
[10]; 5 mg/kg, 3 h after last dose
  number of surviving mice (10 animals each): 9
[10]; 5 mg/kg, 6 h after last dose
  number of surviving mice (10 animals each): 8
[10]; 5 mg/kg, 9 h after last dose
  number of surviving mice (10 animals each): 6
[10]; 5 mg/kg, 12 h after last dose
  number of surviving mice (10 animals each): 5
[10]; 10 mg/kg, 0 h after last dose
  number of surviving mice (10 animals each): 10
[10]; 10 mg/kg, 3 h after last dose
  number of surviving mice (10 animals each): 10
[10]; 10 mg/kg, 6 h after last dose
  number of surviving mice (10 animals each): 10
[10]; 10 mg/kg, 9 h after last dose
  number of surviving mice (10 animals each): 9
[10]; 10 mg/kg, 12 h after last dose
  number of surviving mice (10 animals each): 5
[11]
  minimal bactericidal concentrations (MBC): 4 µg/mL (≈ 1.62 µM)
